Our source for the Control value values is patent US12522580B2, “Fluorine-containing pyrimidine compounds, harmful fungus control agent, and method for producing fluorine-containing pyrimidine compounds” (UNIMATEC CO., LTD., priority 2021, dated 2026).

Assay [1] deals with Gray mold germs (Botrytis cinerea, strain 2018105). Nature of the assay: Evaluation test for gray mold (mycelial growth on PDA medium). The class given is cell-based. As to conditions: final concentration 500 ppm in PDA medium; mycelia diameter after two days at 27° C.; average of 3. As to the method: The fluorine-containing pyrimidine compound prepared in Example 1, 2, 3, 4, 12 or 16 was dissolved in DMSO and diluted to a concentration of 50000 ppm. To 3 ml of a dissolved PDA medium, 30 μL of diluted DMSO solution each was added and stirred with a pipette. The mixture was placed in a well of a 6-well plate and allowed to solidify (final concentration: 500 ppm, repeated 3 times each). Gray mold germs (Botrytis cinerea, strain 2018105) grown in a PDA medium was cut out together with the medium with a biopsy punch having a diameter of 0.4 cm, and placed on the center of the PDA medium in the 6-well plate containing the DMSO solution so as to be grown at 27° C. After two days, the diameters of mycelia were measured and the control value was calculated. The control value was calculated according to the following formula. In the formula described below, “untreated” represents PDA medium to which only DMSO was added as the test solution. [formula]

In another assay the test system is cucumber powdery mildew. The experiment in a line: Evaluation test for powdery mildew of cucumbers (cucumber leaf disc). The class given is in vivo. The conditions noted are these: blotch area after 12 days, 25° C. The protocol:
A fluorine-containing pyrimidine compound prepared in Examples 12, 13 or 15 was dissolved in acetone and diluted to a concentration of 500 ppm. Subsequently, a cucumber leaf disc (diameter 20 mm) was placed in a diluted acetone solution and completely wetted. The cucumber leaf disc was then placed so that the back surface of the cucumber leaf disc contacted a separately prepared plain agar medium, and air-dried. After air-drying, a cucumber powdery mildew spore suspension was evenly sprayed on the cucumber leaf disc and air-dried. The cucumber leaf disc was then allowed to stand in an incubator (25° C., illuminated for 12 hours), and after 12 days, the blotch area was examined to calculate the control value. The control value was calculated according to the following formula. In the following formula, “untreated” means that the cucumber leaf disc was wetted with only acetone as the test solution, and “untreated section” represents the corresponding section. A fluorine-containing pyrimidine compound prepared in Examples 12, 13 or 15 was dissolved in acetone and diluted to a concentration of 100 ppm. Subsequently, a cucumber leaf disc (diameter 20 mm) was placed in a diluted acetone solution and completely wetted. The cucumber leaf disc was placed so that the back surface of the cucumber leaf disc contacted a separately prepared plain agar medium, and air-dried. After air-drying, a cucumber powdery mildew spore suspension was evenly prayed on the cucumber leaf disc and air-dried. The cucumber leaf disc was then allowed to stand in an incubator (25° C., illuminated for 12 hours), and after 12 days, the blotch area was examined to calculate the control value. The control value was calculated according to the following formula. In the following formula, “untreated” means that the cucumber leaf disc was wetted with only acetone as the test solution, and “untreated section” represents the corresponding section. [formula] (Evaluation Test for Gray Mold (500 ppm))

Consider `COc1nc(-c2ccccn2)nc(Nc2ccccc2)c1C(F)(F)F` [Example 1, 6-methoxy-N-phenyl-2-(2-pyridyl)-5-(trifluoromethyl)-4-pyrimidinamine], for which the Control value in assay [1] is 90.5.
Regarding `COc1nc(-c2ccccn2)nc(Nc2cccc(C)c2)c1C(F)(F)F` [Example 2, 6-methoxy-N-(3-methylphenyl)-2-(2-pyridyl)-5-(trifluoromethyl)-4-pyrimidinamine], the Control value in assay [1] is 86.8.
Same read-out and setting: as for `CCCCc1ccc(Nc2nc(-c3ccccn3)nc(OC)c2C(F)(F)F)cc1` [Example 3, N-(4-butylphenyl)-6-methoxy-2-(2-pyridyl)-5-(trifluoromethyl)-4-pyrimidinamine], the figure is 76.9.
`COc1nc(-c2ccccn2)nc(Nc2ccc(C)c(C)c2)c1C(F)(F)F` [Example 4, 6-methoxy-N-(3,4-dimethylphenyl)-2-(2-pyridyl)-5-(trifluoromethyl)-4-pyrimidinamine] returned a Control value in assay [1] of 86.8.
Consider `COc1nc(-c2ccccn2)nc(Nc2ccc(C)cc2C)c1C(F)(F)F` [Example 12, 6-methoxy-N-(2,4-dimethylphenyl)-2-(2-pyridyl)-5-(trifluoromethyl)-4-pyrimidinamine], for which the Control value with cucumber powdery mildew (100 ppm in acetone) came out at 91.8; in the assay on cucumber powdery mildew (500 ppm in acetone) it was 100.0; in assay [1], 94.3.
With `COc1nc(-c2ccccn2)nc(Nc2ccc(Cl)cc2)c1C(F)(F)F` [Example 13, N-(4-chlorophenyl)-6-methoxy-2-(2-pyridyl)-5-(trifluoromethyl)-4-pyrimidinamine], the Control value was 80.0 in the assay with cucumber powdery mildew (100 ppm in acetone) and 98.8 in the assay on cucumber powdery mildew (500 ppm in acetone).
The corresponding values for `COc1nc(-c2ccccn2)nc(Nc2ccc(C)cc2)c1C(F)(F)F` [Example 15, 6-methoxy-N-(4-methylphenyl)-2-(2-pyridyl)-5-(trifluoromethyl)-4-pyrimidinamine] are 100.0 and 100.0.
Compound `FC(F)(F)c1c(Cl)nc(-c2ccccn2)nc1Nc1ccccc1` [Example 16, 6-chloro-N-phenyl-2-(2-pyridyl)-5-(trifluoromethyl)-4-pyrimidinamine] returned a Control value in assay [1] of 92.4.
